Reference: publication PMC7565640 (Journal of Virology, 2020)
pIC50: −log10 of the molar value. Several values for one entry are separate records, joined by “and”; a condition that tells them apart may be missing. Identical values can stand only once. Counter-ions that a name gives are not always drawn.

Columns and labels:
SARS-CoV-2 [1] = type: cell-based; conditions: read-out: IC50 (avg)
Vero E6 cells = conditions: read-out: CC50 (avg); 3 days
SARS-CoV-2 [2] = type: cell-based
SARS-CoV-2 [3] = type: cell-based; remark: listed apart in the source
[4] = test system: clathrin-mediated endocytosis; conditions: cited from earlier work
MERS-CoV spike = conditions: cited from earlier work
SARS-CoV spike = conditions: cited from earlier work

Structure (SMILES): CCSc1ccc2c(c1)N(CCCN1CCN(C)CC1)c1ccccc1S2 [Thiethylperazine maleate]
- pIC50 (SARS-CoV-2 [1]): 5.10

Structure (SMILES): CCN(CC)Cc1cc(Nc2ccnc3cc(Cl)ccc23)ccc1O [Amodiaquine hydrochloride]
- CC50 (Vero E6 cells): > 38.6 µM

Structure (SMILES): O=C1NCN(c2ccccc2)C12CCN(CCCC(c1ccc(F)cc1)c1ccc(F)cc1)CC2 [Fluspirilene]
- pIC50 (SARS-CoV-2 [1]): 5.27

Structure (SMILES): CC(CN1c2ccccc2Sc2ccccc21)N(C)C (centres unmarked) [Promethazine hydrochloride]
- pIC50 (SARS-CoV-2 [1]): 4.98

Structure (SMILES): OC(c1cc(C(F)(F)F)nc2c(C(F)(F)F)cccc12)C1CCCCN1 (centres unmarked) [Mefloquine hydrochloride]
- pIC50 (SARS-CoV-2 [1]): 5.09

Structure (SMILES): CCN(CC)Cc1cc(Nc2ccnc3cc(Cl)ccc23)ccc1O [Amodiaquine dihydrochloride dihydrate]
- pIC50 (SARS-CoV-2 [1]): 5.59 and 5.31

Structure (SMILES): CCN(CC)CCCC(C)Nc1ccnc2cc(Cl)ccc12 (centres unmarked) [Chloroquine phosphate]
- infectious viral particle production of SARS-CoV-2 (TCID50) (SARS-CoV-2 [2]): can inhibit
- production of SARS-CoV-2 N and RdRp mRNA (SARS-CoV-2 [3]): inhibit production
- pIC50 (SARS-CoV-2 [1]): 4.33

Structure (SMILES): CC(C)N1CCN(c2ccc(OCC3COC(Cn4cncn4)(c4ccc(Cl)cc4Cl)O3)cc2)CC1 (centres unmarked) [Terconazole]
- pIC50 (SARS-CoV-2 [1]): 4.79

Structure (SMILES): CN(C)CCCN1c2ccccc2Sc2ccc(Cl)cc21 [Chlorpromazine hydrochloride]
- infectious viral particle production of SARS-CoV-2 (TCID50) (SARS-CoV-2 [2]): can inhibit
- clathrin-mediated endocytosis [4]: inhibit
- pIC50 (SARS-CoV-2 [1]): 5.39

Structure (SMILES): CCN(CCO)CCCC(C)Nc1ccnc2cc(Cl)ccc12 (centres unmarked) [Hydroxychloroquine sulfate]
- infectious viral particle production of SARS-CoV-2 (TCID50) (SARS-CoV-2 [2]): can inhibit
- time-of-addition: inhibitory activity on infectious-virus production (SARS-CoV-2 [2]; 24 h): some reduction in inhibitory activity
- production of SARS-CoV-2 N and RdRp mRNA (SARS-CoV-2 [3]): inhibit production
- pIC50 (SARS-CoV-2 [1]): 4.95

Structure (SMILES): Cc1ccc(NC(=O)c2ccc(CN3CCN(C)CC3)cc2)cc1Nc1nccc(-c2cccnc2)n1 [Imatinib mesylate]
- MERS-CoV spike-mediated entry (MERS-CoV spike): inhibits
- SARS-CoV spike-mediated entry (SARS-CoV spike): inhibits

Structure (SMILES): CCN(CC)CCOc1ccc(C(O)(Cc2ccc(Cl)cc2)c2ccc(C)cc2)cc1 (centres unmarked) [Triparanol]
- pIC50 (SARS-CoV-2 [1]): 5.19
